Experimental findings from PMC11227536, “Modulation of the Meisenheimer complex metabolism of nitro-benzothiazinones by targeted C-6 substitution” (Communications Chemistry, 2024) are described below.

Converted amounts (≈) assume the structure as drawn. Some results are limits rather than exact numbers.

What all share (type): cell-based
Data set [1] deals with Mycobacterium vaccae (JMRC:STI:10670). Put plainly: MIC determination. The conditions noted are these: for MIC: Mycolicibacterium vaccae, n = 1; for Selectivity index: ratio between CC50 (HeLa) and MIC M. vaccae; for antimycobacterial activity (in words): M. vaccae. As to the method:
Supplementary Method 5: Biological Assays
Minimal inhibitory concentrations were determined against Mycobacterium vaccae (JMRC:STI:10670) and Mycobacterium smegmatis (JMRC:STH:00056). M. vaccae and M. smegmatis cultures were grown 48 h at 32 °C in a medium consisting of glycerol (1%), beef extract (0.5%), peptone from casein (0.5%) and sodium chloride (0.3%). Serial dilutions of the DMSO test item solutions (1 mg∙mL -1) were prepared at 100 µL scale in 96 well plates in Mueller Hinton broth starting at 200 µg∙mL -1 (highest) to cover a final concentration range of 100 to 0.05 µg∙mL -1. Each plate was equipped with a series of DMSO and ciprofloxacin dilutions as quality controls. 96 well plates were inoculated with 100 µL diluted culture (Mueller Hinton bullion) at a final concentration of 5∙10 5 and incubated at 37 °C for 42 h. Growth/no growth was visually inspected.
(§1) 2. Proliferation and cytotoxicity assay
(§2) Cells and culture conditions
(§3) The following cell lines and media were used:
(§4) Cell line Cell culture medium
(§5) Cells were grown in the appropriate cell culture medium supplemented with 10 mL/L ultraglutamine 1 […]
(§6) heat inactivated fetal bovine serum (GIBCO Life Technologies 10270-106) at 37 °C in 5% CO 2 in high density polyethylene flasks (NUNC 156340).
(§7) To decide if the compounds have an antiproliferative and/or a cytotoxic effect on human cells, cell death and retardation of cell proliferation were assessed. Under our experimental conditions, the optical density measured from the CellTiter-Blue® reagent and methylene blue assay is proportional to the […]
The test substances were dissolved in DMSO and further diluted in the cell culture medium. The adherent cells were harvested at the logarithmic growth phase after soft trypsinization using 0.25% trypsin in PBS containing 0.02% EDTA (Biochrom KG L2163). For each experiment, approximately 10,000 cells were seeded with 0.1 mL culture medium per well of the 96-well microplates (HUVEC: flat bottomed NUNC 167008, K-562: round bottomed NUNC 163320). To test the antiproliferative

For a further data set, the system named is K-562. The data set is described as follows: Proliferation assay. To be noted: Homo sapiens, K562; 72 h, n = 4. As to the method: (§8) Supplementary Method 5: Biological Assays […]
as §1, §2, §3, §4, §5, §6, §7
(§9) The test substances were dissolved in DMSO and further diluted in the cell culture medium. The adherent cells were harvested at the logarithmic growth phase after soft trypsinization using 0.25% trypsin in PBS containing 0.02% EDTA (Biochrom KG L2163). For each experiment, approximately 10,000 cells were seeded with 0.1 mL culture medium per well of the 96-well microplates (HUVEC: flat bottomed NUNC 167008, K-562: round bottomed NUNC 163320). To test the antiproliferative […]
(§10) effect of test compounds on HUVEC and K-562, the cells were incubated for 72 hours in plates prepared with control and different dilutions of test substances. […]
(§11) of proliferation compared to the untreated control. […]
(§12) Cells were incubated with dilutions of the test substances in microplates for 72 hours at 37 °C in a humidified atmosphere and 5% CO 2. […]
cytotoxicity and the inhibition of cell proliferation. The number of viable cells was determined subsequent to staining with CellTiter-Blue® reagent or methylene blue.
K-562 cells: The influence of test substances on cell proliferation of K-562 was determined via the CellTiter-Blue® assay (PROMEGA). Briefly, viable cells are able to reduce the indicator dye resazurin […]
dye. Thus, formation of resorufin was followed by measuring absorption at 570 nm and subtracting absorption measured at 600 nm. […]
(§13) General remarks: Signals from the methylene blue and CellTiter-Blue® reagent are proportional to the number of viable cells. A repeat determination has been conducted in all experiments, four replicates were assayed. The calculations of the different values of GI 50 and CC 50 were performed with the software

For another data set, the system named is HUVEC. The data set is described as follows: Proliferation assay. To be noted: Homo sapiens, 72 h, n = 4. As for the experimental part:
as §8, §1, §2, §3, §4, §5, §6, §7, §9, §10, §11, §12
(§14) cytotoxicity and the inhibition of cell proliferation. The number of viable cells was determined subsequent to staining with CellTiter-Blue® reagent or methylene blue. […]
(§15) HUVEC and HeLa cells: The adherent HUVEC and HeLa cells were fixed by glutaraldehyde (MERCK […]
(§16) gently washing, the stain was eluted by adding 0.2 mL of hydrochloric acid (0.33 M) to each well. The optical densities were measured at 660 nm (methylene blue) in SUNRISE microplate reader (TECAN).
as §13

A short description of a further data set: Cytotoxicity assay. To be noted: human, n = 4. As to the method: as §8, §1, §2, §3, §4, §5, §6, §7
The test substances were dissolved in DMSO and further diluted in the cell culture medium. The adherent cells were harvested at the logarithmic growth phase after soft trypsinization using 0.25% trypsin in PBS containing 0.02% EDTA (Biochrom KG L2163). For each experiment, approximately 10,000 cells were seeded with 0.1 mL culture medium per well of the 96-well microplates (HUVEC: flat bottomed NUNC 167008, K-562: round bottomed NUNC 163320). […]
For the cytotoxicity assay, HeLa cells were preincubated for 48 hours without the test substances. To test the cytotoxic effect on HeLa, dilutions of the compounds were carried out carefully on the subconfluent monolayers of HeLa cells after the preincubation time. After incubation time, the cytolytic effect of compounds was analysed in comparison to the negative control. The 50% cytotoxic concentration (CC 50 ) was defined as the test compound concentration required for destruction of the cell monolayer by 50% compared to untreated control.
as §12, §14, §15, §16, §13

Consider `COC(=O)c1cc([N+](=O)[O-])c2sc(N3CCC4(CC3)OC[C@H](C)O4)nc(=O)c2c1` [Compound 6a], for which the lowest concentration to inhibit growth in data set [1] (MIC) was 0.24 µM (≈ 0.101 µg/mL). The Selectivity index in data set [1] was greater than 500. For the same molecule, the values for the GI50 in the data set on K-562 and with HUVEC were 66.9 ± 12.6 µM and 80.6 ± 5 µM, respectively. In the data set “Cytotoxicity assay”, this molecule registered a CC50 at 72 h greater than 119 µM.

On to `CC(C)OC(=O)c1cc([N+](=O)[O-])c2sc(N3CCC4(CC3)OC[C@H](C)O4)nc(=O)c2c1` [Compound 6c], for which, in data set [1], inhibition of growth (MIC) required 0.22 µM (≈ 0.0989 µg/mL) and the Selectivity index is recorded as greater than 500. The same molecule showed a GI50 with K-562 greater than 111 µM. The molecule further displayed a GI50 in the data set on HUVEC greater than 111 µM. Moreover, in “Cytotoxicity assay”, the CC50 at 72 h is greater than 111 µM.

Consider `C[C@H]1COC2(CCN(c3nc(=O)c4cc(C(=O)N(C)C)cc([N+](=O)[O-])c4s3)CC2)O1` [Compound 7c], for which, in data set [1], the lowest concentration to inhibit growth (MIC) was 28.8 µM (≈ 12.5 µg/mL) and the Selectivity index is given as greater than 4. The GI50 in the data set with K-562 was greater than 115 µM. In the data set on HUVEC, this molecule registered a GI50 greater than 115 µM. In “Cytotoxicity assay”, this molecule came in with a CC50 at 72 h greater than 115 µM.

On to `CON(C)C(=O)c1cc([N+](=O)[O-])c2sc(N3CCC4(CC3)OC[C@H](C)O4)nc(=O)c2c1` [Compound 7f], for which, in data set [1], it took 13.9 µM (≈ 6.26 µg/mL) to inhibit growth (MIC) and the Selectivity index is recorded as greater than 8. The same molecule returned a GI50 with K-562 greater than 111 µM. In the data set with HUVEC, this molecule registered a GI50 of 98.5 ± 3.3 µM. Moreover, in the data set “Cytotoxicity assay”, the CC50 at 72 h is greater than 111 µM.

Regarding `C[C@H]1COC2(CCN(c3nc(=O)c4cc(C(=O)O)cc([N+](=O)[O-])c4s3)CC2)O1` [Compound 8], in data set [1], the “antimycobacterial activity (in words)” value is reported as “moderate activity”, the MIC stood at 0.98 µM (≈ 0.399 µg/mL) and the Selectivity index is reported as greater than 125. The GI50 in the data set with K-562 is greater than 123 µM. Also, the GI50 in the data set with HUVEC was greater than 123 µM. For the same molecule, the CC50 at 72 h in the data set “Cytotoxicity assay” is greater than 123 µM.

On to `C[C@H]1COC2(CCN(c3nc(=O)c4cc(C#N)cc([N+](=O)[O-])c4s3)CC2)O1` [Compound 9], for which, in data set [1], the “antimycobacterial activity (in words)” value is listed as “similarly active as BTZ-043 (1)”, the MIC was 0.016 µM (≈ 0.00621 µg/mL) and the Selectivity index is on record as greater than 8062. In the data set with K-562, this molecule displayed a GI50 of 94.4 ± 5.9 µM. This molecule showed a GI50 in the data set on HUVEC of 49.9 ± 4.1 µM. The CC50 at 72 h in the data set “Cytotoxicity assay” is greater than 129 µM.

In the case of `C[C@H]1COC2(CCN(c3nc(=O)c4cc(I)cc([N+](=O)[O-])c4s3)CC2)O1` [Compound 10], in data set [1], the “antimycobacterial activity (in words)” value is reported as “similarly active as BTZ-043 (1)”, 0.006 µM (≈ 0.00294 µg/mL) was the least that counted as inhibitory (MIC) and the Selectivity index was greater than 16114. Further, the GI50 in the data set on K-562 is greater than 102 µM. Moreover, the GI50 with HUVEC is greater than 102 µM. The CC50 at 72 h in “Cytotoxicity assay” was greater than 102 µM.

Turning to `C[C@H]1COC2(CCN(c3nc(=O)c4cc(Br)cc([N+](=O)[O-])c4s3)CC2)O1` [Compound 11], in data set [1], the “antimycobacterial activity (in words)” value is reported as “similarly active as BTZ-043 (1)”, the MIC worked out at 0.004 µM (≈ 0.00177 µg/mL) and the Selectivity index is on record as greater than 31236. In addition, the GI50 in the data set with K-562 is greater than 113 µM. The same molecule yielded a GI50 in the data set on HUVEC greater than 113 µM. For the same molecule, the 50% cytotoxic concentration (CC50) at 72 h in “Cytotoxicity assay” was greater than 113 µM.

As for `C[C@H]1COC2(CCN(c3nc(=O)c4cccc([N+](=O)[O-])c4s3)CC2)O1` [Compound 23], in data set [1], the “antimycobacterial activity (in words)” value is reported as “significantly lower activity than 1” and the Selectivity index was greater than 125. In data set [1] (42 h), 1.1 µM (≈ 0.4 µg/mL) was the least that counted as inhibitory (MIC). The same molecule registered a GI50 in the data set with K-562 greater than 138 µM. The molecule also gave a concentration for 50% growth inhibition (GI50) in the data set with HUVEC greater than 137 µM. Besides, the CC50 at 72 h in the data set “Cytotoxicity assay” is greater than 138 µM.
